Assay results taken from patent US20060046966A1, “Antipicornaviral compounds and compositions, their pharmaceutical uses, and materials for their synthesis” (Agouron Pharmaceuticals, Inc., priority 1998, published 2006).

System: enterovirus type 70 (EV 70)
Assay: Anti-enteroviral cell culture assay, EV 70
Type: cell-based
Conditions: Enterovirus D, MRC5, 96 h; Strain EV-70; MRC-5 cells; four days; XTT
Procedure: Echovirus type 11 (EV 11) and enterovirus type 70 (EV 70) were purchased from ATCC (Rockville, Md.). Virus stocks were propagated and antiviral assays were performed in MRC-5 cells (ATCC). Cells were grown in minimal essential medium with 10% fetal bovine serum (Life Technologies, Gaithersburg, Md.).
The ability of compounds to protect cells against either EV 11 or EV 70 infection was measured by the XTT dye reduction method (Weislow et al., J. Natl. Cancer Inst. 1989, vol. 81, 577-586). MRC-5 cells were infected with EV 11 or EV 70 at an m.o.i. of 0.003 or 0.004, respectively, or mock-infected with medium only. Infected or uninfected cells were added at 1×10^4 cells per well and incubated with appropriate concentrations of compound. Four days later, XTT/PMS was added to test plates, and the amount of formazan produced was quantified spectrophotometrically at 450/650 nm. The EC50 was calculated as the concentration of compound that increased the formazan production in compound-treated, virus-infected cells to 50% of that produced by compound-free, uninfected cells. The 50% cytotoxic dose (CC50) was calculated as the concentration of compound that decreased formazan production in compound-treated, uninfected cells to 50% of that produced in compound-free, uninfected cells. The therapeutic index (TI) was calculated by dividing the CC50 by the EC50. […]

Structure (SMILES): CCOC(=O)/C=C/[C@H](C[C@@H]1CCNC1=O)NC(=O)[C@@H](CC(=O)[C@@H](NC(=O)c1cc(C)on1)C(C)C)Cc1ccc(F)cc1 [Compound B-2, Ethyl-3-{(5′-Methylisoxazole-3′-carbonyl)-L-ValΨ(COCH2)-L-(4-F-Phe)-L-((S)-Pyrrol-Ala)}-E-Propenoate]
- EC50: 3 nM
